DBAASP
Converted amounts (≈) assume the structure as drawn. “And” between values parts separate entries of the source, which are not always exact repeats. Equal entries are not always repeated. Values belong to the compound of their own block, whether it stands above or below them.

Columns and labels:
Assay in all cases: ≥ marks a high value that may be exact or a test limit, other limits are often not marked, values filed in µg/mL are converted to µM
[1] = system: Bacillus subtilis IFO 3513
[2] = system: Staphylococcus aureus IFO 12732
[3] = system: Escherichia coli IFO 12734
Salmonella typhimurium = system: Salmonella typhimurium
[4] = system: Enterococcus faecalis ATCC 29212
Staphylococcus aureus MR = system: Staphylococcus aureus MR
Escherichia coli = system: Escherichia coli
[5] = system: Listeria monocytogenes NCTC 7973
[6] = system: Staphylococcus haemolyticus
[7] = system: Streptococcus pyogenes ATCC 19615
Corynebacterium xerosis = system: Corynebacterium xerosis
[8] = system: Staphylococcus aureus SAP 0017
Pseudomonas aeruginosa = system: Pseudomonas aeruginosa
[9] = system: Staphylococcus epidermidis
Staphylococcus aureus = system: Staphylococcus aureus
Enterococcus faecalis = system: Enterococcus faecalis
[10] = system: Staphylococcus aureus ATCC 25923
[11] = system: Neisseria gonorrhoeae F-62
Candida albicans = system: Candida albicans
Listeria monocytogenes = system: Listeria monocytogenes
[12] = system: Neisseria gonorrhoeae FA-19
Acinetobacter junii RT-4 = system: Acinetobacter junii RT-4
[13] = system: Streptococcus pyogenes ATCC 21547
[14] = system: Pseudomonas syringae pv. tabaci 1918NCPPB
Escherichia coli D21 = system: Escherichia coli D21
[15] = system: Yersinia pseudotuberculosis YPIII
[16] = system: Staphylococcus aureus Cowan 1
Staphylococcus capitis 1 = system: Staphylococcus capitis 1
[17] = system: Pseudomonas aeruginosa ATCC 15692
[18] = system: Schizosaccharomyces pombe
Saccharomyces cerevisiae = system: Saccharomyces cerevisiae
[19] = system: Staphylococcus epidermidis ATCC 12228
[20] = system: Candida albicans ATCC 10231
[21] = system: Escherichia coli ATCC 25922
[22] = system: Acinetobacter baumannii ATCC 19606
Bacillus megaterium Bm11 = system: Bacillus megaterium Bm11
Candida krusei IOC 4559 = system: Candida krusei IOC 4559
[23] = system: Candida parapsilosis IOC 456416
[24] = system: Candida tropicalis IOC 45608
Candida albicans MDM8 = system: Candida albicans MDM8
Aspergillus niger = system: Aspergillus niger
[25] = system: Candida albicans IOC 4558
[26] = system: Candida glabrata IOC 4565

MIC [1]: 3.64 µM (≈ 6.25 µg/mL) | MIC [2]: 3.64 µM (≈ 6.25 µg/mL) | MIC [3]: 29.1 µM (≈ 50 µg/mL)
SMILES: CC[C@H](C)[C@H](NC(=O)[C@H](CC(C)C)NC(=O)[C@@H]1CCCN1C(=O)[C@H](CCCCN)NC(=O)[C@H](CCCCN)NC(=O)[C@H](Cc1c[nH]c2ccccc12)NC(=O)[C@@H]1CCCN1C(=O)[C@H](CCCCN)NC(=O)[C@H](CC(C)C)NC(=O)[C@@H]1CCCN1C(=O)[C@H](Cc1c[nH]c2ccccc12)NC(=O)[C@H](CCCN=C(N)N)NC(=O)[C@@H](N)CCCN=C(N)N)C(N)=O [RRWPLKPWKKPLI]

MIC (Salmonella typhimurium): ≥ 34 µM | MIC [4]: > 34 µM | MIC (Staphylococcus aureus MR): 8.51 µM (≈ 16 µg/mL) | MIC (Escherichia coli): 2.13 µM and 4.25 µM | MIC [5]: 8.51 µM (≈ 16 µg/mL) | MIC [7]: 4.25 µM (≈ 8 µg/mL) | MIC (Corynebacterium xerosis): 0.266 µM (≈ 0.5 µg/mL) | MIC [8]: 8.51 µM (≈ 16 µg/mL) | MIC (Pseudomonas aeruginosa): 8.51 µM (≈ 16 µg/mL) | MIC [9]: 4.25 µM and 2.13 µM | MIC (Staphylococcus aureus): 8.51 µM (≈ 16 µg/mL) | MIC (Enterococcus faecalis): ≥ 34 µM | MIC [10]: 8.51 µM (≈ 16 µg/mL)
SMILES: CC[C@H](C)[C@H](N)C(=O)N[C@@H](CC(C)C)C(=O)N[C@@H](CCCCN)C(=O)N[C@@H](CCCCN)C(=O)N[C@@H](Cc1c[nH]c2ccccc12)C(=O)N1CCC[C@H]1C(=O)N[C@@H](Cc1c[nH]c2ccccc12)C(=O)N[C@@H](Cc1c[nH]c2ccccc12)C(=O)N1CCC[C@H]1C(=O)N[C@@H](Cc1c[nH]c2ccccc12)C(=O)N[C@@H](CCCN=C(N)N)C(=O)N[C@@H](CCCN=C(N)N)C(=O)N[C@@H](CCCCN)C(N)=O [ILKKWPWWPWRRK]
MIC [6]: 1.06 µM and 0.532 µM

MIC (Escherichia coli): 0.997 µM (≈ 2.1 µg/mL) | MIC [11]: 0.57 µM (≈ 1.2 µg/mL) | MIC (Candida albicans): 14.4 µM (≈ 30.3 µg/mL) | MIC (Listeria monocytogenes): 0.902 µM (≈ 1.9 µg/mL) | MIC [12]: 1.66 µM (≈ 3.49 µg/mL)
SMILES: CC[C@H](C)[C@@H]1NC(=O)[C@H](Cc2c[nH]c3ccccc23)NC(=O)CNC(=O)[C@H](CCCN=C(N)N)NC(=O)[C@@H]2CSSC[C@H](NC1=O)C(=O)N[C@@H](Cc1ccccc1)C(=O)N[C@H](C(=O)N[C@H](C(=O)NCC(=O)N[C@@H](CCCN=C(N)N)C(=O)O)C(C)C)CSSC[C@H](NC(=O)[C@H](CC(C)C)NC(=O)[C@H](CCCN=C(N)N)NC(=O)CNC(=O)CNC(=O)[C@@H](N)CCCN=C(N)N)C(=O)N[C@@H](Cc1ccc(O)cc1)C(=O)N2 [RGGRLCYCRGWICFCVGR]

MIC (Acinetobacter junii RT-4): 12 µM (≈ 19.5 µg/mL) | MIC [4]: 12 µM (≈ 19.5 µg/mL) | MIC [13]: 6 µM (≈ 9.74 µg/mL) | MIC [14]: 12 µM (≈ 19.5 µg/mL) | MIC (Escherichia coli D21): 24 µM (≈ 39 µg/mL) | MIC [15]: 6 µM (≈ 9.74 µg/mL) | MIC [16]: 3 µM (≈ 4.87 µg/mL) | MIC (Staphylococcus capitis 1): 3 µM (≈ 4.87 µg/mL) | MIC [17]: ≥ 48 µM | MIC [18]: 6 µM (≈ 9.74 µg/mL) | MIC (Saccharomyces cerevisiae): 12 µM (≈ 19.5 µg/mL) | MIC [19]: 3 µM (≈ 4.87 µg/mL) | MIC [20]: 12 µM (≈ 19.5 µg/mL) | MIC [21]: 12 µM (≈ 19.5 µg/mL) | MIC [22]: 12 µM (≈ 19.5 µg/mL) | MIC [10]: 3 µM (≈ 4.87 µg/mL) | MIC (Bacillus megaterium Bm11): 3 µM (≈ 4.87 µg/mL)
SMILES: CC[C@H](C)[C@H](NC(=O)[C@H](CCCN=C(N)N)NC(=O)CNC(=O)[C@H](CC(C)C)NC(=O)[C@H](Cc1ccccc1)NC(=O)[C@H](CCCCN)NC(=O)[C@H](CO)NC(=O)[C@H](Cc1ccccc1)NC(=O)[C@H](Cc1c[nH]c2ccccc12)NC(=O)[C@@H]1CCCN1C(=O)[C@H](CC(C)C)NC(=O)[C@@H](N)Cc1ccccc1)C(=O)N[C@@H](CC(C)C)C(N)=O [FLPWFSKFLGRIL]

MIC (Candida krusei IOC 4559): 3.54 µM (≈ 14.2 µg/mL) | MIC [23]: 3.54 µM (≈ 14.2 µg/mL) | MIC [24]: 3.54 µM (≈ 14.2 µg/mL) | MIC (Candida albicans MDM8): 3.54 µM (≈ 14.2 µg/mL) | MIC (Aspergillus niger): 7.07 µM (≈ 28.3 µg/mL) | MIC [25]: 3.54 µM (≈ 14.2 µg/mL) | MIC [26]: 3.54 µM (≈ 14.2 µg/mL)
SMILES: CC[C@H](C)[C@@H]1NC(=O)[C@H](C)NC(=O)[C@@H](NC(=O)[C@@H](NC(=O)[C@@H](N)Cc2ccccc2)[C@@H](C)O)CSSC[C@@H]2NC(=O)[C@H](CCCCN)NC(=O)[C@H](CCCCN)NC(=O)[C@H](CCC(=O)O)NC(=O)CNC(=O)[C@H](CO)NC(=O)CNC(=O)[C@H](CCCCN)NC(=O)[C@@H]3CSSC[C@@H](C(=O)N[C@H](C(=O)N[C@@H](CCCCN)C(=O)N[C@H](C(=O)O)C(C)C)C(C)C)NC(=O)[C@H](C(C)C)NC(=O)[C@H](CC(N)=O)NC(=O)[C@H](Cc4ccccc4)NC(=O)[C@H](CCCCN)NC(=O)[C@H](CSSC[C@H](NC(=O)[C@H](CO)NC1=O)C(=O)N[C@@H](CC(=O)O)C(=O)N[C@@H]([C@@H](C)CC)C(=O)N[C@@H](CCCCN)C(=O)N[C@@H](C(C)C)C(=O)N[C@@H](CC(N)=O)C(=O)NCC(=O)N[C@@H](CCCCN)C(=O)N1CCC[C@H]1C(=O)N3)NC(=O)[C@H](CO)NC(=O)[C@H](Cc1c[nH]c3ccccc13)NC(=O)CNC(=O)CNC(=O)[C@H](CO)NC2=O [FTCAISCDIKVNGKPCKGSGEKKCSGGWSCKFNVCVKV]
